Results taken from patent US4853401A, “Spiro-hydantoins as aldose reductase inhibitors” (priority 1987, dated 1989).

Experiments:
[1] = test system: accumulation of sorbitol in the sciatic nerves; test: Inhibition of accumulation of sorbitol in sciatic nerves of diabetic rats; format: in vivo, Sprague Dawley rats; settings: oral 25 mg/kg at 0, 7 and 24 h, sacrificed 27 h
[2] = Effect of in vivo doses on plasma glucose of diabetic rats; design: species or system Sprague Dawley rats; settings: n = 5, average ± standard deviation
Protocol: Compound No. 1 (CP 3182 AR) and No. 2 (CP 3192 AR) were evaluated at various doses, using the experimental model described hereinbefore (.sctn.2.1).
In the case of each product, 25 Sprague Dawley rats fasted the previous day were made diabetic by an intraperitoneal injection of streptozotocin (75 mg/kg). The rats were divided into 5 groups of 5, each orally given 0.3, […] or 10 mg/kg of CP 3182 AR or a control.
An identical experiment was performed with CP 3192 AR at the same doses. Treatment was given immediately after the streptozotocin, and 7 and 24 hours later. The animals were sacrificed 27 hours after induction. Estimates were made of the effects of the products on the proportion of plasma glucose and the sorbitol content of the crystalline lenses and sciatic nerves of rats.

[3] = Acute oral toxicity (LD50); format: in vivo; settings: mouse, in vivo, mice, read-out: Lethal dose LD50
Protocol: The LD 50 was calculated by the method of Litchfield and Wilcoxon (J. Pharmacol. Exp. Ther., 96, 99, 1949) and is expressed in mg/kg. The products were orally administered to mice.
Behaviour was studied, 2, 4, 6 and 24 hours after treatment. Observation was continued if symptoms persisted at that time. Deaths were recorded during the 14 days after treatment. The results are given in Table II, in which the numbers of the compounds are the same as the numbers given in column 1 of Table I.

[4] = Preventive effect of single dose: plasma glucose; format: in vivo, Sprague Dawley rats; settings: for Plasma glucose, treated: 10 mg/kg oral
Protocol: 2.3. In vivo effects of a single dose of compound No. 2 (CP 3192 AR) on the variation in the proportion of plasma glucose and the accumulation of sorbitol in the crystalline lenses and sciatic nerves of diabetic rats.
2.3.1. Preventive effect. CP 3192 AR was administered simultaneously with the induction of diabetes. The experiment was performed on 33 male Sprague Dawley rats weighing about 200 g.
At time 0 hours, 3 rats were sacrificed and used as non-diabetic controls. 30 fats fasted the previous day were made diabetic by an intraperitoneal injection of streptozotocin (75 mg/kg). A dose of 10 mg/kg of CP 3192 AR was simultaneously administered orally to 15 of the rats. The other 15 were given a placebo. 3 control rats and 3 rats treated with CP 3192 AR were sacrificed 2, 4, 8, 24 and 48 hours after induction of diabetes.
An estimate was made of the effects of the product on the proportion of plasma glucose and the sorbitol content of the crystalline lenses and sciatic nerves.

[5] = test system: mice; test: Teratogenic effect on mice; format: in vivo; settings: oral doses of 100 mg/kg and 1 000 mg/kg

## CC(=O)OCN1C(=O)N(COC(C)=O)C2(C1=O)c1ccccc1-c1ccccc12 [Compound 2, bis-(1',3'-acetoxymethyl)-spiro-/fluorene-9,4'-imidazolidine/-2',5'-dione]
[1]
  Inhibition of accumulation of sorbitol in vivo, in sciatic nerves: 85%
[2]; 0.3 mg/kg oral
  Plasma glucose: 425 ± 82 mg/100 ml
[2]; 1 mg/kg oral
  Plasma glucose: 444 ± 76 mg/100 ml
[2]; 3 mg/kg oral
  Plasma glucose: 446 ± 70 mg/100 ml
[2]; 10 mg/kg oral
  Plasma glucose: 472 ± 55 mg/100 ml
[3]
  LD50 at 336 h: > 3000 mg/kg
[4]; 2 h
  Plasma glucose, treated: 436 ± 45 mg/100 ml
[4]; 4 h
  Plasma glucose, treated: 359 ± 45 mg/100 ml
[4]; 8 h
  Plasma glucose, treated: 264 ± 73 mg/100 ml
[4]; 24 h
  Plasma glucose, treated: 485 ± 35 mg/100 ml
[4]; 48 h
  Plasma glucose, treated: 447 ± 34 mg/100 ml
[4]; single oral dose 10 mg/kg
  effect on the proportion of plasma glucose: no effect
[5]
  teratogenic effect: does not have a mutagenic effect in the Ames test or teratogenic effect on mice
